Results published in the NIST ThermoML archive (doi:10.1016/j.jct.2011.01.014).
± gives the expanded uncertainty stated by the source.

Assay: xn = mol fraction of the nth substance listed
Conditions: 101 kPa, Liquid; for mass density: Vibrating tube method; for speed of sound: sound velocity cell

CC(=O)[O-].[NH3+]CCO [2-hydroxyethylammonium acetate] + CCO
Conditions | mass density, 315.65 K [kg/m3] | mass density, 318.15 K [kg/m3] | mass density, 320.65 K [kg/m3] | mass density, 323.15 K [kg/m3] | speed of sound, 315.65 K [m/s] | speed of sound, 318.15 K [m/s] | speed of sound, 320.65 K [m/s] | speed of sound, 323.15 K [m/s]
x1 = 0.0497 | – | 804.825 ± 0.72 | 802.647 ± 0.72 | 800.468 ± 0.72 | 1129.1 ± 1.4 | 1120.9 ± 1.4 | 1112.8 ± 1.4 | 1104.7 ± 1.4
x1 = 0.101 | – | 838.551 ± 0.6 | 836.46 ± 0.61 | 834.368 ± 0.61 | 1169.7 ± 1.4 | 1161.8 ± 1.4 | 1153.9 ± 1.4 | 1146 ± 1.4
x1 = 0.201 | – | 894.347 ± 0.56 | 892.395 ± 0.56 | 890.443 ± 0.57 | 1243.5 ± 1.6 | 1235.9 ± 1.6 | 1228.4 ± 1.6 | 1221 ± 1.6
x1 = 0.3009 | – | 942.413 ± 0.54 | 940.573 ± 0.54 | 938.735 ± 0.54 | 1331.6 ± 1.7 | 1324.5 ± 1.7 | 1317.5 ± 1.7 | 1310.5 ± 1.7
x1 = 0.4057 | – | 985.266 ± 0.59 | 983.53 ± 0.59 | 981.801 ± 0.59 | 1394.2 ± 1.9 | 1387.3 ± 1.9 | 1380.5 ± 1.9 | 1373.7 ± 1.9
x1 = 0.4946 | – | 1016.52 ± 0.71 | 1014.85 ± 0.7 | 1013.19 ± 0.7 | 1456.6 ± 2.1 | 1450 ± 2.1 | 1443.5 ± 2.1 | 1437 ± 2.1
x1 = 0.603 | 1051.28 ± 0.96 | 1049.69 ± 0.96 | 1048.1 ± 0.95 | 1046.54 ± 0.95 | 1531.4 ± 2.3 | 1525.2 ± 2.3 | 1519 ± 2.3 | 1512.7 ± 2.3
x1 = 0.6765 | 1071.63 ± 1.2 | 1070.09 ± 1.2 | 1068.53 ± 1.2 | 1066.98 ± 1.2 | 1577.4 ± 2.4 | 1571.3 ± 2.4 | 1565.3 ± 2.4 | 1559.4 ± 2.5
x1 = 0.7918 | 1099.86 ± 1.6 | 1098.4 ± 1.6 | 1096.93 ± 1.6 | 1095.47 ± 1.6 | 1636.6 ± 2.7 | 1630.7 ± 2.7 | 1624.8 ± 2.7 | 1618.9 ± 2.7
x1 = 0.8825 | 1119.38 ± 1.9 | 1117.9 ± 1.9 | 1116.49 ± 1.9 | 1115.06 ± 1.9 | 1684.4 ± 2.9 | 1678.6 ± 2.9 | 1672.8 ± 2.9 | 1667.2 ± 2.9
x1 = 0.9539 | 1132.54 ± 2.3 | 1131.12 ± 2.3 | 1129.69 ± 2.3 | 1128.27 ± 2.3 | 1723.9 ± 3.1 | 1718.1 ± 3.1 | 1712.4 ± 3.1 | 1706.7 ± 3.1
x1 = 1 | 1139.18 ± 2.5 | 1137.82 ± 2.5 | 1136.45 ± 2.5 | 1135.08 ± 2.5 | 1751.9 ± 3.2 | 1746.5 ± 3.2 | 1741.3 ± 3.2 | 1736 ± 3.2
